Experimental data: patent US20230295197A1, “STAT5 and STAT6 Degraders and Uses Thereof” (REGENTS OF THE UNIVERSITY OF MICHICAN, priority 2022, published 2023)

Target: T1, STAT6 (Homo sapiens, UniProt P42226)
T1 construct: endogenous in cells; host or cells: MOLM-16, KU-812, SKNO1, MB231, L1236
T1 sequence (P42226 1-847): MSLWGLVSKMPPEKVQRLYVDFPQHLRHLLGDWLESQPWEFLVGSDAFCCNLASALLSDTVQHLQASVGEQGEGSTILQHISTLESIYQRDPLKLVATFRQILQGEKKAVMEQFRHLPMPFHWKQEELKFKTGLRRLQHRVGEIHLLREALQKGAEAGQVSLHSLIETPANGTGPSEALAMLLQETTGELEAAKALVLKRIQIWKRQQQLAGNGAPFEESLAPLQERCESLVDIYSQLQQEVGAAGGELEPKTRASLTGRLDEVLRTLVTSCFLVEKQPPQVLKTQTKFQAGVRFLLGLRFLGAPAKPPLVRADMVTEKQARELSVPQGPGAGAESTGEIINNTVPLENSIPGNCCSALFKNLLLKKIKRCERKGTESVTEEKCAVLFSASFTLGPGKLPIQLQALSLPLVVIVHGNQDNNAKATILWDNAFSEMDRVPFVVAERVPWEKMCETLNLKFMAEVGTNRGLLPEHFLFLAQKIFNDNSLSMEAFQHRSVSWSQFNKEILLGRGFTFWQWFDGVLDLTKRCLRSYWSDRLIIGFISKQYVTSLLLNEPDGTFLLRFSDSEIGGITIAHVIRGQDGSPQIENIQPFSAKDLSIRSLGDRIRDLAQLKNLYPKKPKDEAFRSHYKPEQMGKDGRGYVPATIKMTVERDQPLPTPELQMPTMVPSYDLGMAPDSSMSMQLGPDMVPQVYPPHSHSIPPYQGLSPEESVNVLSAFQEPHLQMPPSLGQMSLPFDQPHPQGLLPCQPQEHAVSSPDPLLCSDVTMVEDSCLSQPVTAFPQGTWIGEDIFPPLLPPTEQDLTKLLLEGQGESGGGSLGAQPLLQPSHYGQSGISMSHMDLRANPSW
Assay: Immunoblotting (Western blot) analysis of STAT6 degradation efficiency of degraders in treated cells
Format: cell-based
Conditions: MOLM-16 cells, class symbols, read-out: DC50 S6 MOLM-16
Procedure: Evaluation of the degradation efficiency of degraders may be accomplished by immunoblotting analysis. The representative general protocol is the following:
Cells are maintained in the appropriate culture medium with 10% FBS at 37° C. and an atmosphere of 5% CO2. Cell lines are used within three months of thawing fresh vials. Cells are lysed 1× Cell Lysis Buffer (Cell Signaling Technology, #9803), resolved by SDS-PAGE NuPAGE gel (Thermo Fisher Scientific), and transferred to a PVDF membrane (Millipore). Membranes are blocked using Odyssey TBS Blocker Buffer (LI-COR). IRDye 680RD and 800CW Dye-labeled secondary antibodies (LI-COR) are used. The washed membranes are scanned using Odyssey CLx imager (LI-COR). The intensity of Western blot signaling is quantitated using the Odyssey software. Primary antibodies used are: STAT5 Rabbit mAb (Cell Signaling Technology, #94205), STAT6 Rabbit mAb (Cell Signaling Technology, #5397) and GAPDH mouse monoclonal antibody (Santa Cruz Biotechnology, sc-47724).
To evaluate the degradation efficiency of degraders, immunoblotting analysis was performed. The general protocol is the following.
About 1 million cells for each data point were treated with compounds at indicated concentrations and durations. Untreated and treated cells in cell culture medium were transferred into tubes, followed by centrifugation at 3,000 rpm and 4° C. for 6 min Supernatants were removed from tubes and radioimmunoprecipitation assay (RIPA) lysis buffer supplemented with 1% protease inhibitor cocktail (Fisher Scientific cat. PI87786) and phosphatase inhibitor (Roche cat. 04906837001) were added to tubes containing the remaining cell pellets. The tubes were then left on ice for 30 min and placed in a −80° C. freezer. Subsequently they were thawed in 37° C. water, then centrifuged at 14,000 rpm for 15 min and the cell lysates transferred to new tubes. The concentration of total proteins in each tube was calculated using the Pierce BCA protein Assay kit (cat. 23225). Based on the calculated protein concentration, cell lysates containing approximately the same amount of proteins were transferred to new tubes, then distilled water and 4× Protein Sample Loading Buffer for Western Blots (LI-COR cat. 928-40004) supplemented with 20% of mercaptoethanol (Sigma Aldrich cat. M6250) were added on ice. The cell lysates were then reduced and denatured at 95° C. for 5 min. From the tubes containing cell lysates an equal amount of protein samples (20-40 μg) was loaded into precast 8%, 10%, 4%-12%, or 4%-20% Tris-glycine gels (Novex) filled with Tris-glycine SDS running buffer. After the proteins were resolved, they were transferred onto Immobile-FL PVDF Membrane (Millipore Sigma cat. IPFL00010), using Mini Trans-Blot Electrophoretic Transfer Cell (Bio-Rad 1703930). The membranes were blocked with Intercept Blocking Buffer (LI-COR cat. 927-70001) in LI-COR Western Blot boxes for 1 h at rt. The membranes were washed with 1× Tris-buffered saline-Tween-20 (TBST, 1× solution was made from 20×TBST solution, ThermoFisher Scientific cat. 28360) for 5 min 4 times. The membranes were incubated overnight at 4° C. in Intercept Blocking Buffer supplemented with primary antibodies (normally antibody:buffer 1:1000) and Tween-20. The membranes were washed with TBST for 5 min 4 times and were incubated with Intercept Blocking Buffer supplemented with IRDye 800CE Secondary Antibodies, IRDye 680RD Secondary Antibodies (LI-COR biosciences), Tween-20, and 10% SDS solution, for 1 h at rt. The membranes were then washed with TBST for 5 min 4 times and rinsed with deionized water before drying and scanning with Odyssey Dlx Amazing System (LI-COR). The immunoblots were finally quantified by the software.

Structure (SMILES)	DC50 [µM]
CC(C)(C)[C@H](NC(=O)c1cc2cc(C(F)(F)P(=O)(O)O)ccc2s1)C(=O)N1CCN(C(=O)CC(=O)NCCCCCCCCC#Cc2ccc3c(c2)C(=O)N(C2CCC(=O)NC2=O)C3=O)C[C@H]1C(=O)N1CCO[C@H](c2ccccc2)C1 (stereo partly drawn) [Compound 518, ((2-(((2S)-1-((2S)-4-(3-((10-(2-(2,6-dioxopiperidin-3-yl)-1,3-dioxoisoindolin-5-yl)dec-9-yn-1-yl)amino)-3-oxopropanoyl)-2-((R)-2-phenylmorpholine-4-carbonyl)piperazin-1-yl)-3,3-dimethyl-1-oxobutan-2-yl)carbamoyl)benzo[b]thiophen-5-yl)difluoromethyl)phosphonic acid]	> 10
CC(C)(C)[C@H](NC(=O)c1cc2cc(C(F)(F)P(=O)(O)O)ccc2s1)C(=O)N1Cc2cc(OCC(=O)NCCCCCC#Cc3cccc4c3C(=O)N(C3CCC(=O)NC3=O)C4=O)ccc2C[C@H]1C(=O)N1CCC[C@H](c2ccccc2)C1 (stereo partly drawn) [Compound 557, ((2-(((2S)-1-((3S)-7-(2-((7-(2-(2,6-dioxopiperidin-3-yl)-1,3-dioxoisoindolin-4-yl)hept-6-yn-1-yl)amino)-2-oxoethoxy)-3-((R)-3-phenylpiperidine-1-carbonyl)-3,4-dihydroisoquinolin-2(1H)-yl)-3,3-dimethyl-1-oxobutan-2-yl)carbamoyl)benzo[b]thiophen-5-yl)difluoromethyl)phosphonic acid]	> 10
CC(C)(C)[C@H](NC(=O)c1cc2cc(C(F)(F)P(=O)(O)O)ccc2s1)C(=O)N1CCN(C(=O)CC(=O)NCCC#Cc2cccc3c2C(=O)N(C2CCC(=O)NC2=O)C3=O)C[C@H]1C(=O)N1CCC[C@H](c2ccccc2)C1 (stereo partly drawn) [Compound 523, ((2-(((2S)-1-((2S)-4-(3-((4-(2-(2,6-dioxopiperidin-3-yl)-1,3-dioxoisoindolin-4-yl)but-3-yn-1-yl)amino)-3-oxopropanoyl)-2-((R)-3-phenylpiperidine-1-carbonyl)piperazin-1-yl)-3,3-dimethyl-1-oxobutan-2-yl)carbamoyl)benzo[b]thiophen-5-yl)difluoromethyl)phosphonic acid]	> 10
CC(C)(C)[C@H](NC(=O)c1cc2cc(C(F)(F)P(=O)(O)O)ccc2s1)C(=O)N1C[C@@H](OCC(=O)NCCCCCCCCCC#Cc2cccc3c2C(=O)N(C2CCC(=O)NC2=O)C3=O)C[C@H]1C(=O)N1CCO[C@H](c2ccccc2)C1 (stereo partly drawn) [Compound 491, ((2-(((2S)-1-((2S,4S)-4-(2-((11-(2-(2,6-dioxopiperidin-3-yl)-1,3-dioxoisoindolin-4-yl)undec-10-yn-1-yl)amino)-2-oxoethoxy)-2-((R)-2-phenylmorpholine-4-carbonyl)pyrrolidin-1-yl)-3,3-dimethyl-1-oxobutan-2-yl)carbamoyl)benzo[b]thiophen-5-yl)difluoromethyl)phosphonic acid]	> 10
CC(C)(C)[C@H](NC(=O)c1cc2cc(C(F)(F)P(=O)(O)O)ccc2s1)C(=O)N1C[C@@H](OCCCCC#Cc2cccc3c2CN(C2CCC(=O)NC2=O)C3=O)C[C@H]1C(=O)N1CCO[C@H](c2ccccc2)C1 (stereo partly drawn) [Compound 594, ((2-(((2S)-1-((2S,4S)-4-((6-(2-(2,6-dioxopiperidin-3-yl)-1-oxoisoindolin-4-yl)hex-5-yn-1-yl)oxy)-2-((R)-2-phenylmorpholine-4-carbonyl)pyrrolidin-1-yl)-3,3-dimethyl-1-oxobutan-2-yl)carbamoyl)benzo[b]thiophen-5-yl)difluoromethyl)phosphonic acid]	< 0.1
CC(C)(C)[C@H](NC(=O)c1cc2cc(C(F)(F)P(=O)(O)O)ccc2s1)C(=O)N1C[C@@H](OCC(=O)NCCCCCCCCC#Cc2cccc3c2C(=O)N(C2CCC(=O)NC2=O)C3=O)C[C@H]1C(=O)N1CCO[C@H](c2ccccc2)C1 (stereo partly drawn) [Compound 489, ((2-(((2S)-1-((2S,4S)-4-(2-((10-(2-(2,6-dioxopiperidin-3-yl)-1,3-dioxoisoindolin-4-yl)dec-9-yn-1-yl)amino)-2-oxoethoxy)-2-((R)-2-phenylmorpholine-4-carbonyl)pyrrolidin-1-yl)-3,3-dimethyl-1-oxobutan-2-yl)carbamoyl)benzo[b]thiophen-5-yl)difluoromethyl)phosphonic acid]	> 10
Cc1ncsc1-c1ccc([C@H](C)NC(=O)[C@@H]2C[C@@H](O)CN2C(=O)[C@@H](NC(=O)CCCCCCCNC(=O)COc2ccc3c(c2)CN(C(=O)[C@@H](NC(=O)c2cc4cc(C(F)(F)P(=O)(O)O)ccc4s2)C(C)(C)C)[C@H](C(=O)N2CCC[C@H](c4ccccc4)C2)C3)C(C)(C)C)cc1 [Compound 476, (difluoro(2-(((S)-1-((S)-7-(2-((8-(((S)-1-((2S,4R)-4-hydroxy-2-(((S)-1-(4-(4-methylthiazol-5-yl)phenyl)ethyl)carbamoyl)pyrrolidin-1-yl)-3,3-dimethyl-1-oxobutan-2-yl)amino)-8-oxooctyl)amino)-2-oxoethoxy)-3-((R)-3-phenylpiperidine-1-carbonyl)-3,4-dihydroisoquinolin-2(1H)-yl)-3,3-dimethyl-1-oxobutan-2-yl)carbamoyl)benzo[b]thiophen-5-yl)methyl)phosphonic acid]	> 10
CC(C)(C)[C@H](NC(=O)c1cc2cc(C(F)(F)P(=O)(O)O)ccc2s1)C(=O)N1C[C@@H](OCC(=O)NCCCCCC#Cc2ccc3c(c2)C(=O)N(C2CCC(=O)NC2=O)C3=O)C[C@H]1C(=O)N1CCO[C@H](c2ccccc2)C1 (stereo partly drawn) [Compound 488, ((2-(((2S)-1-((2S,4S)-4-(2-((7-(2-(2,6-dioxopiperidin-3-yl)-1,3-dioxoisoindolin-5-yl)hept-6-yn-1-yl)amino)-2-oxoethoxy)-2-((R)-2-phenylmorpholine-4-carbonyl)pyrrolidin-1-yl)-3,3-dimethyl-1-oxobutan-2-yl)carbamoyl)benzo[b]thiophen-5-yl)difluoromethyl)phosphonic acid]	> 10

Same assay, conditions: MOLM-16 cells, numeric bound, read-out: DC50 S6 MOLM-16

Structure (SMILES)	DC50 [µM]
CC(C)(C)[C@H](NC(=O)c1cc2cc(C(F)(F)P(=O)(O)O)ccc2s1)C(=O)N1C[C@@H](OCCCCCC#Cc2cccc3c2CN(C2CCC(=O)NC2=O)C3=O)C[C@H]1C(=O)N1CCC[C@H](c2ccccc2)C1 (stereo partly drawn) [Compound 601, ((2-(((2S)-1-((2S,4S)-4-((7-(2-(2,6-dioxopiperidin-3-yl)-1-oxoisoindolin-4-yl)hept-6-yn-1-yl)oxy)-2-((R)-3-phenylpiperidine-1-carbonyl)pyrrolidin-1-yl)-3,3-dimethyl-1-oxobutan-2-yl)carbamoyl)benzo[b]thiophen-5-yl)difluoromethyl)phosphonic acid]	> 0.3
